In patent US11084826B2, “RSV antiviral pyrazolo- and triazolo-pyrimidine compounds” (Janssen Sciences Ireland Unlimited Company, priority 2015, dated 2021):

Assays:
rgRSV224 virus = assay: Antiviral activity: inhibition of rgRSV224 (GFP-expressing RSV) replication in HeLa cells, GFP expression read-out; assay type: cell-based, respiratory syncytial virus (RSV); conditions: human respiratory syncytial virus, HeLa, read-out: RSV HELA pEC50, rgRSV224 virus (MOI=1) in HeLa cells, GFP read-out (converted)
Method: (§1) Black 384-well clear-bottom microtiter plates (Corning, Amsterdam, The Netherlands) were filled via acoustic drop ejection using the echo liquid handler (Labcyte, Sunnyvale, Calif.). 200 nL of compound stock solutions (100% DMSO) were transferred to the assay plates. 9 serial 4-fold dilutions of compound were made, creating per quadrant the same compound concentration. The assay was initiated by adding 10 μL of culture medium to each well (RPMI medium without phenol red, 10% FBS-heat inactivated, 0.04% gentamycin (50 mg/mL). All addition steps are done by using a multidrop dispenser (Thermo Scientific, Erembodegem, Belgium). Next, rgRSV224 virus (MOI=1) diluted in culture medium was added to the plates. rgRSV224 virus is an engineered virus that includes an additional GFP gene (Hallak LK, Spillmann D, Collins PL, Peeples Me. Glycosaminoglycan sulfation requirements for respiratory syncytial virus infection; Journal of virology (2000), 74(22), 10508-13) and was in-licensed from the NIH (Bethesda, Md., USA). Finally, 20 μL of a HeLa cell suspension (3,000 cells/well) were plated. Medium, virus- and mock-infected controls were included in each test. The wells contain 0.05% DMSO per volume. Cells were incubated at 37° C. in a 5% CO2 atmosphere. Three days post-virus exposure, viral replication was quantified by measuring GFP expression in the cells by an in house developed MSM laser microscope (Tibotec, Beerse, Belgium). The EC50 was defined as the 50% inhibitory concentration for GFP expression. In parallel, compounds were incubated for three days in a set of white 384-well microtiter plates (Corning) and the cytotoxicity of compounds in HeLa cells was determined by measuring the ATP content of the cells using the ATPlite kit (Perkin Elmer, Zaventem, Belgium) according to the manufacturer's instructions. The CC50 was defined as the 50% concentration for cytotoxicity.

[1] = Cytotoxicity in HeLa cells, ATP content measured with the ATPlite kit; assay type: cell-based; conditions: human, TOX HELA pCC50
Method: as §1

CCc1cc(C(=O)N2CCCCC[C@H]2C)nc2cc(-c3ccc(-c4ncc(C(=O)O)s4)cc3F)nn12 (racemic) [Compound F43]
melting point: 177.53 °C | EC50 (rgRSV224 virus): 61.7 nM | CC50 at 3 days [1]: 42700 nM

C[C@@H]1CCCCCN1C(=O)c1cc(C2(C)CC2)n2nc(-c3ccc(OCC(=O)O)cc3F)cc2n1 (racemic) [Compound F48]
melting point: 204.93 °C | EC50 (rgRSV224 virus): 437 nM | CC50 at 3 days [1]: > 100000 nM

C[C@@H]1CCCCCN1C(=O)c1cc(C2(C)CC2)n2nc(-c3ccc4cc(C(=O)O)c(=O)oc4c3F)cc2n1 (racemic) [Compound F49]
melting point: 218.14 °C | EC50 (rgRSV224 virus): 26.3 nM | CC50 at 3 days [1]: 57500 nM

C[C@@H]1CCCCCN1C(=O)c1cc(C2(C)CC2)n2nc(-c3ccc4c(c3F)OCC(C(=O)O)=C4)cc2n1 (racemic) [Compound F51]
melting point: 261.88 °C | EC50 (rgRSV224 virus): 27.5 nM | CC50 at 3 days [1]: 57500 nM

C[C@@H]1CCCCCN1C(=O)c1cc(C2CCC2)n2nc(-c3ccc4cc(C(=O)O)c(=O)oc4c3F)cc2n1 (racemic) [Compound F53]
melting point: 175.52 °C | EC50 (rgRSV224 virus): 36.3 nM | CC50 at 3 days [1]: 60300 nM

CCc1cc(C(=O)N2CCc3sccc3C2C)nc2cc(-c3ccc(-c4ccc(C(=O)O)cn4)cc3F)nn12 (racemic) [Compound F60]
melting point: 270.54 °C | EC50 (rgRSV224 virus): 45.7 nM | CC50 at 3 days [1]: > 25100 nM

CCc1cc(C(=O)N2CCCCC[C@H]2C)nc2cc(-c3ccc4c(c3F)OC[C@@H](C(=O)O)C4)nn12 (racemic) [Compound F65]
melting point: 186.2 °C | EC50 (rgRSV224 virus): 141 nM | CC50 at 3 days [1]: > 100000 nM

CCc1cc(C(=O)N2CCc3sccc3[C@H]2C)nc2cc(-c3ccc4c(c3F)OCC(C(=O)O)=C4)nn12 (racemic) [Compound F66]
melting point: 256.54 °C | EC50 (rgRSV224 virus): 7.08 nM | CC50 at 3 days [1]: 15500 nM

CC1c2ccsc2CCN1C(=O)c1cc(C2(C)CC2)n2nc(-c3ccc(-c4ccc(C(=O)O)cn4)cc3F)cc2n1 (racemic) [Compound F68]
melting point: 203.36 °C | EC50 (rgRSV224 virus): 43.7 nM | CC50 at 3 days [1]: 51300 nM

CCc1cc(C(=O)N2CCCCC[C@H]2C)nc2cc(-c3ccc(C4CC=C(C(=O)O)CC4)cc3F)nn12 (mixture of isomers) [Compound F69]
melting point: 176.26 °C | EC50 (rgRSV224 virus): 195 nM | CC50 at 3 days [1]: > 25100 nM

CCc1cc(C(=O)N2CCCC3(CC=CC3)C2C)nc2cc(-c3ccc(/C=C/C(=O)O)cc3F)nn12 (racemic) [Compound M35]
melting point: 206.72 °C | EC50 (rgRSV224 virus): 200 nM | CC50 at 3 days [1]: 42700 nM

CCc1cc(C(=O)N2CCc3sccc3C2C)nc2cc(-c3cccc(/C=C/C(=O)O)c3F)nn12 (racemic) [Compound M48]
melting point: 255.5 °C | EC50 (rgRSV224 virus): 12.9 nM | CC50 at 3 days [1]: > 25100 nM

CCc1cc(C(=O)N2CC[C@@H]3CCCC[C@@H]3[C@H]2C)nc2cc(-c3ccc(/C=C/C(=O)O)cc3F)nn12 (racemic) [Compound M50]
melting point: 184.15 °C | EC50 (rgRSV224 virus): 191 nM | CC50 at 3 days [1]: 46800 nM

CCc1cc(C(=O)N2CCC3=C(CCCC3)C2C)nc2cc(-c3cccc(/C=C/C(=O)O)c3F)nn12 (racemic) [Compound M51]
melting point: 227.14 °C | EC50 (rgRSV224 virus): 162 nM | CC50 at 3 days [1]: 66100 nM

C[C@@H]1CCCCCN1C(=O)c1cc(C2(C)CC2)n2nc(-c3ccc(C4C[C@H]4C(=O)O)cc3F)cc2n1 (mixture of isomers) [Compound O10]
melting point: 333.75 °C | EC50 (rgRSV224 virus): 28.8 nM | CC50 at 3 days [1]: 45700 nM

C[C@@H]1CCCCCN1C(=O)c1cc(C2CCC2)n2nc(-c3ccc(C4C[C@H]4C(=O)O)cc3F)cc2n1 (mixture of isomers) [Compound O11]
melting point: 249.19 °C | EC50 (rgRSV224 virus): 30.2 nM | CC50 at 3 days [1]: 47900 nM

CCc1cc(C(=O)N2CCCCCN2C)nc2cc(-c3ccc(C4C[C@H]4C(=O)O)cc3F)nn12 (mixture of isomers) [Compound O12]
melting point: 204.71 °C | EC50 (rgRSV224 virus): 174 nM | CC50 at 3 days [1]: > 100000 nM

CCc1cc(C(=O)N2CCCCC[C@H]2C)nc2cc(-c3ccc([C@@H]4C[C@@H]4C(=O)O)cc3F)nn12 (racemic) [Compound O16]
melting point: 333.46 °C | EC50 (rgRSV224 virus): 170 nM | CC50 at 3 days [1]: > 100000 nM

CCc1cc(C(=O)N2CCCCC[C@H]2C)nc2nc(-c3cccs3)nn12 (racemic) [Compound S1]
melting point: 162 to 163 °C | EC50 (rgRSV224 virus): 832 nM | CC50 at 3 days [1]: > 100000 nM

CCc1cc(C(=O)N2CCCCC[C@H]2C)nc2cc(-c3ccc(N(C)c4ccc(C(=O)O)cn4)cc3F)nn12 (racemic) [Compound W20]
melting point: 132 °C | EC50 (rgRSV224 virus): 355 nM | CC50 at 3 days [1]: 63100 nM

CCc1cc(C(=O)N2CCCCC[C@H]2C)nc2cc(-c3ccc(N(C)[C@H]4C[C@@H](C(=O)O)C4)cc3F)nn12 (racemic) [Compound W23]
melting point: 182.69 °C | EC50 (rgRSV224 virus): 75.9 nM | CC50 at 3 days [1]: 79400 nM

C[C@@H]1c2ccccc2CCN1C(=O)c1cc(C2CC2)n2nc(-c3cccc(/C=C/C(=O)O)c3F)cc2n1 [Compound M27]
melting point: 202.04 °C | EC50 (rgRSV224 virus): 11.7 nM

CCc1cc(C(=O)N2CCCCCC2C)nc2cc(-c3ccc(C4CC4C(=O)O)cc3F)nn12 (stereo not shown) [Compound O1]
EC50 (rgRSV224 virus): 123 nM | CC50 at 3 days [1]: > 25100 nM

C[C@@H]1CCCCCN1C(=O)c1cc(C2CC2)n2nc(-c3cccc([C@H]4C[C@@H]4C(=O)O)c3F)cc2n1 [Compound O6]
EC50 (rgRSV224 virus): 148 nM | CC50 at 3 days [1]: 97700 nM

CCc1cc(C(=O)N2CCCCC[C@H]2C)nc2cc(-c3ccc(N4CC(C(=O)O)C4)cc3F)nn12 [Compound W1]
EC50 (rgRSV224 virus): 64.6 nM | CC50 at 3 days [1]: > 25100 nM

CCc1cc(C(=O)N2CCCCC[C@H]2C)nc2cc(-c3ccc(N4CCC[C@@H](C(=O)O)C4)cc3F)nn12 [Compound W4]
EC50 (rgRSV224 virus): 105 nM | CC50 at 3 days [1]: 89100 nM

CCc1cc(C(=O)N2CCCCC[C@H]2C)nc2cc(-c3ccc(N4CCC[C@H](C(=O)O)C4)cc3F)nn12 [Compound W5]
EC50 (rgRSV224 virus): 89.1 nM | CC50 at 3 days [1]: 95500 nM

CCc1cc(C(=O)N2CCCCC[C@H]2C)nc2cc(-c3ccc(NC4(C(=O)O)CC4)cc3F)nn12 [Compound W16]
EC50 (rgRSV224 virus): 269 nM | CC50 at 3 days [1]: > 100000 nM

CCc1cc(C(=O)N2CCCCC[C@H]2C)nc2cc(-c3ccc(N(C)CC(=O)O)cc3F)nn12 [Compound W19]
EC50 (rgRSV224 virus): 263 nM | CC50 at 3 days [1]: > 100000 nM

CCc1cc(C(=O)N2CCCCC[C@H]2C)nc2cc(-c3ccc(N(C)c4cc(C(=O)O)nn4C)cc3F)nn12 [Compound W21]
EC50 (rgRSV224 virus): 1020 nM | CC50 at 3 days [1]: 21900 nM

CCc1cc(C(=O)N2CCCCC[C@H]2C)nc2cc(-c3ccc(-n4cnc(C(=O)O)c4)cc3F)nn12 [Compound W29]
EC50 (rgRSV224 virus): 363 nM | CC50 at 3 days [1]: > 100000 nM

C[C@@H]1CCCCCN1C(=O)c1cc(C2(C)CC2)n2nc(-c3ccc(N4CC[C@H](C(=O)O)C4)cc3F)cc2n1 [Compound W30]
EC50 (rgRSV224 virus): 17.4 nM | CC50 at 3 days [1]: 50100 nM

C[C@@H]1CCCCCN1C(=O)c1cc(C2CCC2)n2nc(-c3ccc(N4CC[C@H](C(=O)O)C4)cc3F)cc2n1 [Compound W31]
EC50 (rgRSV224 virus): 12.6 nM | CC50 at 3 days [1]: 49000 nM

C[C@@H]1c2ccsc2CCN1C(=O)c1cc(C2(C)CC2)n2nc(-c3ccc(N4CC[C@H](C(=O)O)C4)cc3F)cc2n1 [Compound W44]
EC50 (rgRSV224 virus): 8.71 nM | CC50 at 3 days [1]: 49000 nM

CCc1cc(C(=O)N2CCCCC[C@H]2C)nc2cc(-c3ccc(-c4cc(=O)[nH]o4)cc3F)nn12 [Compound X1]
EC50 (rgRSV224 virus): 93.3 nM | CC50 at 3 days [1]: > 25100 nM
